Experimental data: the CheMixHub viscosity set
± gives the uncertainty stated by the source.

Assay: xn = mol fraction of the nth substance listed

CCCC1c2cc(c(O)c(/N=N/c3cccc(C(=O)O)c3)c2O)C(CCC)c2cc(c(O)c(/N=N/c3cccc(C(=O)O)c3)c2O)C(CCC)c2cc(c(O)c(/N=N/c3cccc(C(=O)O)c3)c2O)C(CCC)c2cc1c(O)c(/N=N/c1cccc(C(=O)O)c1)c2O (stereo not drawn) + CS(C)=O
viscosity [mPa·s], 101 kPa
Conditions	293.15 K	298.15 K	303.15 K	308.15 K	313.15 K
x1 = 0.000457	2.314 ± 0.02	2.072 ± 0.018	1.87 ± 0.017	1.698 ± 0.016	1.555 ± 0.015
x1 = 0.000544	2.345 ± 0.02	2.1 ± 0.018	1.893 ± 0.017	1.724 ± 0.016	1.579 ± 0.015
x1 = 0.000616	2.369 ± 0.02	2.124 ± 0.018	1.907 ± 0.017	1.737 ± 0.016	1.597 ± 0.015
x1 = 0.000708	2.391 ± 0.02	2.143 ± 0.019	1.931 ± 0.017	1.756 ± 0.016	1.607 ± 0.016
x1 = 0.0008532	2.425 ± 0.02	2.167 ± 0.019	1.952 ± 0.017	1.779 ± 0.016	1.625 ± 0.016
x1 = 0.001009	2.471 ± 0.021	2.209 ± 0.019	1.991 ± 0.018	1.812 ± 0.017	1.651 ± 0.016
x1 = 0.001122	2.52 ± 0.021	2.25 ± 0.019	2.024 ± 0.018	1.838 ± 0.017	1.68 ± 0.016
x1 = 0.001351	2.556 ± 0.021	2.284 ± 0.02	2.045 ± 0.018	1.858 ± 0.017	1.695 ± 0.016
x1 = 0.001491	2.633 ± 0.022	2.346 ± 0.02	2.104 ± 0.018	1.905 ± 0.017	1.739 ± 0.016
x1 = 0.001636	2.678 ± 0.022	2.38 ± 0.02	2.138 ± 0.019	1.934 ± 0.017	1.764 ± 0.016
x1 = 0.001789	2.724 ± 0.022	2.43 ± 0.021	2.176 ± 0.019	1.967 ± 0.018	1.79 ± 0.017

CCCCOC(C)=O + CS(C)=O
viscosity [mPa·s], 101.33 kPa
Conditions	x2 = 0.074	x2 = 0.1418	x2 = 0.2774	x2 = 0.46	x2 = 0.5396	x2 = 0.6383	x2 = 0.7272	x2 = 0.809	x2 = 0.9021	x2 = 0.9703
293.15 K	0.774 ± 0.026	0.789 ± 0.026	0.868 ± 0.028	1.011 ± 0.032	1.098 ± 0.035	1.211 ± 0.038	1.363 ± 0.042	1.527 ± 0.047	1.791 ± 0.054	2.063 ± 0.062
303.15 K	0.678 ± 0.023	0.692 ± 0.023	0.752 ± 0.025	0.879 ± 0.029	0.931 ± 0.03	1.032 ± 0.033	1.146 ± 0.036	1.28 ± 0.04	1.488 ± 0.046	1.697 ± 0.052
313.15 K	0.592 ± 0.021	0.606 ± 0.021	0.662 ± 0.023	0.766 ± 0.025	0.809 ± 0.027	0.889 ± 0.029	0.983 ± 0.032	1.117 ± 0.035	1.258 ± 0.039	1.423 ± 0.044

C=COC(C)=O + Cc1ccc(C)cc1
viscosity [mPa·s], 101 kPa
Conditions	x1 = 0.1501	x1 = 0.2469	x1 = 0.3618	x1 = 0.4592	x1 = 0.5631	x1 = 0.67	x1 = 0.7587	x1 = 0.8601	x1 = 0.9478
303.15 K	0.537 ± 0.007	0.518 ± 0.007	0.497 ± 0.006	0.48 ± 0.006	0.462 ± 0.006	0.445 ± 0.006	0.435 ± 0.006	0.42 ± 0.005	0.403 ± 0.005
313.15 K	0.486 ± 0.006	0.467 ± 0.006	0.445 ± 0.006	0.428 ± 0.006	0.41 ± 0.005	0.393 ± 0.005	–	–	0.353 ± 0.005

CCCCOC(C)=O + Cc1ccc(C)cc1
viscosity [mPa·s], 101 kPa
Conditions	298.15 K	308.15 K
x1 = 0.0459	0.615 ± 0.005	0.537 ± 0.005
x1 = 0.1511	0.615 ± 0.005	0.54 ± 0.005
x1 = 0.2505	0.618 ± 0.005	0.543 ± 0.005
x1 = 0.3511	0.621 ± 0.005	0.547 ± 0.005
x1 = 0.4477	0.626 ± 0.005	0.552 ± 0.005
x1 = 0.4948	0.628 ± 0.005	0.555 ± 0.005
x1 = 0.55	0.632 ± 0.005	0.558 ± 0.005
x1 = 0.6515	0.639 ± 0.005	0.565 ± 0.005
x1 = 0.7509	0.647 ± 0.005	0.572 ± 0.005
x1 = 0.8517	0.657 ± 0.005	0.58 ± 0.005
x1 = 0.9445	0.667 ± 0.005	0.589 ± 0.005

C=COC(C)=O + Cc1cccc(C)c1
viscosity [mPa·s], 101 kPa
Conditions	x1 = 0.1482	x1 = 0.2434	x1 = 0.3456	x1 = 0.4518	x1 = 0.5741	x1 = 0.6832	x1 = 0.7598	x1 = 0.8817	x1 = 0.9602
303.15 K	0.52 ± 0.007	0.502 ± 0.006	0.483 ± 0.006	0.465 ± 0.006	0.445 ± 0.006	0.428 ± 0.006	0.414 ± 0.005	0.401 ± 0.005	0.392 ± 0.005
313.15 K	0.469 ± 0.006	0.452 ± 0.006	0.434 ± 0.006	0.416 ± 0.005	0.399 ± 0.005	0.383 ± 0.005	0.37 ± 0.005	0.358 ± 0.005	0.35 ± 0.005

CCCCOC(C)=O + Cc1cccc(C)c1
viscosity [mPa·s], 101 kPa
Conditions	298.15 K	308.15 K
x1 = 0.0468	0.583 ± 0.005	0.528 ± 0.005
x1 = 0.1506	0.587 ± 0.005	0.531 ± 0.005
x1 = 0.2497	0.592 ± 0.005	0.535 ± 0.005
x1 = 0.3502	0.598 ± 0.005	0.539 ± 0.005
x1 = 0.4477	0.606 ± 0.005	0.545 ± 0.005
x1 = 0.4941	0.61 ± 0.005	0.548 ± 0.005
x1 = 0.549	0.615 ± 0.005	0.551 ± 0.005
x1 = 0.6505	0.625 ± 0.005	0.559 ± 0.005
x1 = 0.7501	0.637 ± 0.005	0.568 ± 0.005
x1 = 0.8511	0.651 ± 0.005	0.577 ± 0.005
x1 = 0.9409	0.664 ± 0.005	0.587 ± 0.005
